The target of this experiment is Glycogen phosphorylase, muscle form (Oryctolagus cuniculus) (UniProt P00489). Briefly: Tested for inhibition constant against glycogen phosphorylase b. Further details: scale not given here.

SMILES strings stand for the structures.

Sequence of Glycogen phosphorylase, muscle form (Oryctolagus cuniculus) (P00489 whole entry, looked up): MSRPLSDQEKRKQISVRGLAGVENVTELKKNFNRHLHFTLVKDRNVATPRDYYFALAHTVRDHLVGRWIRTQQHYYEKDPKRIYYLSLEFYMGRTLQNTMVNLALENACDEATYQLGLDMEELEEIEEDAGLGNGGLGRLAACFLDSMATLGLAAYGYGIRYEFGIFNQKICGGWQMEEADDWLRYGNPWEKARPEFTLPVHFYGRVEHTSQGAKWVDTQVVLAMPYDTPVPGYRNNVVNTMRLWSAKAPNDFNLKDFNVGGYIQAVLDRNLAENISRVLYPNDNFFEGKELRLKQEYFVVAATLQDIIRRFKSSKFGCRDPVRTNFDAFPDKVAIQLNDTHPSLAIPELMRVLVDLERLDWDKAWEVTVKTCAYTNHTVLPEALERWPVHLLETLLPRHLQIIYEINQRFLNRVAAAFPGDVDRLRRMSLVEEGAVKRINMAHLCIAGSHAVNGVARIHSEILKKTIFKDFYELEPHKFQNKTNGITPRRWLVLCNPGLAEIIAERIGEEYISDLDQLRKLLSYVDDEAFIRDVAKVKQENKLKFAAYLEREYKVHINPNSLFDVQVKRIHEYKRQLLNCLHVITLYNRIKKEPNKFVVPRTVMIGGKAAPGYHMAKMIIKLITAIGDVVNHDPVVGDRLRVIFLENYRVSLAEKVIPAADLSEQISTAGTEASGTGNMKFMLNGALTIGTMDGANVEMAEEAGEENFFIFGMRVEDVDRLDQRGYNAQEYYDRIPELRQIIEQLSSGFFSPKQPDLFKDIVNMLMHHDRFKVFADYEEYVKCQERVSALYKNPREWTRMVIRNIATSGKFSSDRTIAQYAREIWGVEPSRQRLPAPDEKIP

The compound `N#CC[C@]1(O)O[C@H](CO)[C@@H](O)[C@H](O)[C@H]1O` came in with an Exp Inhib Constant of 2.03.
In the case of `OCC1OC(S)C(O)C(O)C1O` (stereo not given), the Exp Inhib Constant stood at 0.
The same measure for `CO[C@H]1O[C@H](CO)[C@H](O)[C@H](O)[C@H]1O`: 2.49.
`CC1OC(CO)C(O)C(O)C1O` (stereo not given) came in with an Exp Inhib Constant of 3.97.
In turn, `NC(=O)C1OC(CO)C(O)C(O)C1O` (stereo in doubt; 27) gave an Exp Inhib Constant of -0.82.
In turn, `NC(=O)CS[C@H]1O[C@H](CO)[C@@H](O)[C@H](O)[C@H]1O` displayed an Exp Inhib Constant of 3.05.
The compound `N#CC[C@@H]1O[C@H](CO)[C@@H](O)[C@H](O)[C@H]1O` showed an Exp Inhib Constant of 2.2.
For the compound `CO[C@@H]1O[C@H](CO)[C@H](O)[C@H](O)[C@H]1O`, the Exp Inhib Constant was found to be 3.21.
As for `[N-]=[N+]=NC[C@@]1(O)O[C@@H](CO)[C@@H](O)[C@H](O)[C@@H]1O`, the Exp Inhib Constant worked out at 2.
Next, `OCC1OC(CO)C(O)C(O)C1O` (stereo in doubt; 10): 3.09; `NC(=O)[C@@H]1O[C@H](CO)[C@@H](O)[C@H](O)[C@H]1O`: -1.61.
On to `O[C@@H]1[C@@H](O)[C@@H](O)O[C@H](CS)[C@H]1O`, for which the Exp Inhib Constant came to 0.69.
As to `NNC(=O)[C@@H]1O[C@H](CO)[C@@H](O)[C@H](O)[C@H]1O` (stereo in doubt; 25), the Exp Inhib Constant turned out to be 1.1.
The compound `O=C(Nc1ccccc1)C1OC(CO)C(O)C(O)C1O` (stereo not given) showed an Exp Inhib Constant of 2.53.
`NCC1OC(CO)C(O)C(O)C1O` (stereo in doubt; 14) had an Exp Inhib Constant of 3.54.
For `COC(=O)C1OC(CO)C(O)C(O)C1O` (stereo in doubt; 31), the Exp Inhib Constant was 3.19.
With `OC[C@@H]1O[C@@](O)(CO)[C@@H](O)[C@@H](O)[C@@H]1O`, the Exp Inhib Constant is 2.76.
For the compound `OC[C@H]1O[C@H](OCC2O[C@@H](O)[C@H](O)[C@@H](O)[C@@H]2O)[C@H](O)[C@@H](O)[C@H]1O` (stereo not given in full), the Exp Inhib Constant amounted to 2.79.
In turn, `OCC1OC(F)C(F)C(O)C1O` (stereo not given) had an Exp Inhib Constant of -1.61.
In the case of `NNC(=O)[C@@H]1O[C@H](CO)[C@@H](O)[C@H](O)[C@H]1O` (stereo in doubt; 35), the Exp Inhib Constant is -0.92.
On to `NCC1OC(CO)C(O)C(O)C1O` (stereo in doubt; 15), for which the Exp Inhib Constant is 2.82.
With `CS(=O)(=O)OCC1OC(CO)C(O)C(O)C1O` (stereo not given), the Exp Inhib Constant is 1.57.
As for `[N-]=[N+]=NC[C@@H]1O[C@H](CO)[C@@H](O)[C@H](O)[C@H]1O`, the Exp Inhib Constant stood at 2.72.
Compound `OCCO[C@@H]1O[C@H](CO)[C@@H](O)[C@H](O)[C@H]1O` gave an Exp Inhib Constant of 3.23.
In turn, `CS(=O)(=O)OC[C@]1(O)O[C@@H](CO)[C@@H](O)[C@H](O)[C@@H]1O` gave an Exp Inhib Constant of 1.31.
The same measure for `OCc1ccccc1O[C@H]1O[C@H](CO)[C@@H](O)[C@H](O)[C@H]1O`: 2.15.
`COC(=O)C1OC(CO)C(O)C(O)C1O` (stereo in doubt; 33) came in with an Exp Inhib Constant of 0.92.
`OC[C@H]1O[C@@H](Oc2cc3ccccc3[nH]2)[C@H](O)[C@@H](O)[C@@H]1O` gave an Exp Inhib Constant of 0.96.
For the compound `NC(=O)[C@H]1O[C@H](CO)[C@@H](O)[C@H](O)[C@H]1O`, the Exp Inhib Constant was 3.6.
Regarding `[N-]=[N+]=NC[C@H]1O[C@H](CO)[C@@H](O)[C@H](O)[C@H]1O`, the Exp Inhib Constant turned out to be 3.11.
Take `O=C(Nc1ccc(O)cc1)C1OC(CO)C(O)C(O)C1O` (stereo not given): the Exp Inhib Constant is 1.72.
Compound `O=C(CCl)N[C@H]1O[C@H](CO)[C@@H](O)[C@H](O)[C@H]1O` came in with an Exp Inhib Constant of -3.22.
`NC(=O)C1OC(CO)C(O)C(O)C1O` (stereo in doubt; 20) came in with an Exp Inhib Constant of -0.99.
With `OCC1OC(CO)C(O)C(O)C1O` (stereo in doubt; 9), the Exp Inhib Constant came to 0.41.
In turn, `NCCC1OC(CO)C(O)C(O)C1O` (stereo not given) displayed an Exp Inhib Constant of 1.5.

The record behind these values is ChEMBL document CHEMBL1127755, “Comparative molecular field analysis using GRID force-field and GOLPE variable selection methods in a study of inhibitors of glycogen phosphorylase b” (J Med Chem, 1994).
